Measurements: PubChem BioAssay (NCI)
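The compound was tested at five concentrations on cells cultured in 96-well plates, with a 48-hour exposure period. GI50 marks 50% less growth. TGI: total growth inhibition.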

Tests used:
Assay in all cases: NCI tumour cell line growth inhibition, 48 h
EKVX NSCLC = test system: EKVX NSCLC
MDA-MB-468 breast = test system: MDA-MB-468 breast
HL-60(TB) leukemia = test system: HL-60(TB) leukemia
UACC-62 melanoma = test system: UACC-62 melanoma
K-562 leukemia = test system: K-562 leukemia
786-0 renal = test system: 786-0 renal
HOP-92 NSCLC = test system: HOP-92 NSCLC
DU-145 prostate = test system: DU-145 prostate
MCF7 breast = test system: MCF7 breast
RXF 393 renal = test system: RXF 393 renal
SN12C renal = test system: SN12C renal
NCI-H460 lung = test system: NCI-H460 lung
CCRF-CEM leukemia = test system: CCRF-CEM leukemia
M14 melanoma = test system: M14 melanoma
IGROV1 ovarian = test system: IGROV1 ovarian
LOX IMVI melanoma = test system: LOX IMVI melanoma
TK-10 renal = test system: TK-10 renal
SF-539 CNS = test system: SF-539 CNS
A549 NSCLC = test system: A549 NSCLC
SK-OV-3 ovarian = test system: SK-OV-3 ovarian
SF-295 CNS = test system: SF-295 CNS
BT-549 breast = test system: BT-549 breast
MDA-MB-435 = test system: MDA-MB-435
SK-MEL-5 melanoma = test system: SK-MEL-5 melanoma
A498 renal = test system: A498 renal
T-47D breast = test system: T-47D breast
HCT-116 colon = test system: HCT-116 colon
HOP-62 NSCLC = test system: HOP-62 NSCLC
OVCAR-4 ovarian = test system: OVCAR-4 ovarian
SNB-19 CNS = test system: SNB-19 CNS
OVCAR-5 ovarian = test system: OVCAR-5 ovarian
SW-620 colon = test system: SW-620 colon
MALME-3M melanoma = test system: MALME-3M melanoma
HT29 colon = test system: HT29 colon
OVCAR-8 ovarian = test system: OVCAR-8 ovarian
RPMI-8226 leukemia = test system: RPMI-8226 leukemia
HCC-2998 colon = test system: HCC-2998 colon
SNB-75 CNS = test system: SNB-75 CNS
PC-3 prostate = test system: PC-3 prostate
CAKI-1 renal = test system: CAKI-1 renal
U251 CNS = test system: U251 CNS
SK-MEL-28 melanoma = test system: SK-MEL-28 melanoma
KM12 colon = test system: KM12 colon
SK-MEL-2 melanoma = test system: SK-MEL-2 melanoma
OVCAR-3 ovarian = test system: OVCAR-3 ovarian
SF-268 CNS = test system: SF-268 CNS
HS 578T breast = test system: HS 578T breast
NCI/ADR-RES ovarian = test system: NCI/ADR-RES ovarian
NCI-H522 lung = test system: NCI-H522 lung
HCT-15 colon = test system: HCT-15 colon
UACC-257 melanoma = test system: UACC-257 melanoma
COLO 205 colon = test system: COLO 205 colon
ACHN renal = test system: ACHN renal
UO-31 renal = test system: UO-31 renal
NCI-H23 lung = test system: NCI-H23 lung
MDA-MB-231 breast = test system: MDA-MB-231 breast
MOLT-4 leukemia = test system: MOLT-4 leukemia
NCI-H226 lung = test system: NCI-H226 lung

Cc1ccccc1[C@H]1C(C(=O)c2ccc(Cl)cc2)C2(N[C@@H]1c1ccccc1)C(=O)Nc1ccc(Cl)cc12 (stereo partly specified)
GI50 (EKVX NSCLC): 4.15 µM | TGI (EKVX NSCLC): 8.85 µM | GI50 (MDA-MB-468 breast): 4.98 µM | TGI (MDA-MB-468 breast): 10.1 µM | GI50 (HL-60(TB) leukemia): 9.94 µM | TGI (HL-60(TB) leukemia): 24.2 µM | GI50 (UACC-62 melanoma): 4.6 µM | TGI (UACC-62 melanoma): 9.56 µM | GI50 (K-562 leukemia): 7.49 µM | TGI (K-562 leukemia): 36.4 µM | GI50 (786-0 renal): 5.75 µM | TGI (786-0 renal): 11.1 µM | GI50 (HOP-92 NSCLC): 4.07 µM | TGI (HOP-92 NSCLC): 9.11 µM | GI50 (DU-145 prostate): 6.11 µM | TGI (DU-145 prostate): 12.7 µM | GI50 (MCF7 breast): 4.47 µM | TGI (MCF7 breast): 9.78 µM | GI50 (RXF 393 renal): 1.89 µM | TGI (RXF 393 renal): 7.25 µM | GI50 (SN12C renal): 4.96 µM | TGI (SN12C renal): 9.93 µM | GI50 (NCI-H460 lung): 7.5 µM | TGI (NCI-H460 lung): 19.5 µM | GI50 (CCRF-CEM leukemia): 9.04 µM | TGI (CCRF-CEM leukemia): 36.8 µM | GI50 (M14 melanoma): 6.5 µM | TGI (M14 melanoma): 12.6 µM | GI50 (IGROV1 ovarian): 4.58 µM | TGI (IGROV1 ovarian): 9.64 µM | GI50 (LOX IMVI melanoma): 5.45 µM | TGI (LOX IMVI melanoma): 10.5 µM | GI50 (TK-10 renal): 5.3 µM | TGI (TK-10 renal): 10.6 µM | GI50 (SF-539 CNS): 6.2 µM | TGI (SF-539 CNS): 11.7 µM | GI50 (A549 NSCLC): 5.63 µM | TGI (A549 NSCLC): 11.5 µM | GI50 (SK-OV-3 ovarian): 5.88 µM | TGI (SK-OV-3 ovarian): 12.2 µM | GI50 (SF-295 CNS): 5.21 µM | TGI (SF-295 CNS): 10.2 µM | GI50 (BT-549 breast): 5.49 µM | TGI (BT-549 breast): 10.9 µM | GI50 (MDA-MB-435): 6.04 µM | TGI (MDA-MB-435): 12.1 µM | GI50 (SK-MEL-5 melanoma): 6.09 µM | TGI (SK-MEL-5 melanoma): 11.7 µM | GI50 (A498 renal): 6.28 µM | TGI (A498 renal): 12.5 µM | GI50 (T-47D breast): 3.66 µM | TGI (T-47D breast): 8.83 µM | GI50 (HCT-116 colon): 5.04 µM | TGI (HCT-116 colon): 10.2 µM | GI50 (HOP-62 NSCLC): 5.88 µM | TGI (HOP-62 NSCLC): 11.3 µM | GI50 (OVCAR-4 ovarian): 5.74 µM | TGI (OVCAR-4 ovarian): 13.7 µM | GI50 (SNB-19 CNS): 6.07 µM | TGI (SNB-19 CNS): 11.6 µM | GI50 (OVCAR-5 ovarian): 5.39 µM | TGI (OVCAR-5 ovarian): 10.6 µM | GI50 (SW-620 colon): 6.97 µM | TGI (SW-620 colon): 20 µM | GI50 (MALME-3M melanoma): 5.63 µM | TGI (MALME-3M melanoma): 10.9 µM | GI50 (HT29 colon): 5.58 µM | TGI (HT29 colon): 11.4 µM | GI50 (OVCAR-8 ovarian): 6.41 µM | TGI (OVCAR-8 ovarian): 14.5 µM | GI50 (RPMI-8226 leukemia): 8.18 µM | TGI (RPMI-8226 leukemia): 30.2 µM | GI50 (HCC-2998 colon): 5.38 µM | TGI (HCC-2998 colon): 10.5 µM | GI50 (SNB-75 CNS): 4.37 µM | TGI (SNB-75 CNS): 12.6 µM | GI50 (PC-3 prostate): 4.02 µM | TGI (PC-3 prostate): 10.6 µM | GI50 (CAKI-1 renal): 4.23 µM | TGI (CAKI-1 renal): 9.47 µM | GI50 (U251 CNS): 5.85 µM | TGI (U251 CNS): 11.7 µM | GI50 (SK-MEL-28 melanoma): 6.26 µM | TGI (SK-MEL-28 melanoma): 11.8 µM | GI50 (KM12 colon): 6.06 µM | TGI (KM12 colon): 13.5 µM | GI50 (SK-MEL-2 melanoma): 5.31 µM | TGI (SK-MEL-2 melanoma): 10.5 µM | GI50 (OVCAR-3 ovarian): 3.68 µM | TGI (OVCAR-3 ovarian): 9.82 µM | GI50 (SF-268 CNS): 4.74 µM | TGI (SF-268 CNS): 12.1 µM | GI50 (HS 578T breast): 6.79 µM | TGI (HS 578T breast): 39.5 µM | GI50 (NCI/ADR-RES ovarian): 5.64 µM | TGI (NCI/ADR-RES ovarian): 11.4 µM | GI50 (NCI-H522 lung): 5.52 µM | TGI (NCI-H522 lung): 10.8 µM | GI50 (HCT-15 colon): 5.56 µM | TGI (HCT-15 colon): 11.1 µM | GI50 (UACC-257 melanoma): 5.82 µM | TGI (UACC-257 melanoma): 11.6 µM | GI50 (COLO 205 colon): 5.56 µM | TGI (COLO 205 colon): 10.9 µM | GI50 (ACHN renal): 5.89 µM | TGI (ACHN renal): 11.1 µM | GI50 (UO-31 renal): 4.48 µM | TGI (UO-31 renal): 9.28 µM | GI50 (NCI-H23 lung): 5.54 µM | TGI (NCI-H23 lung): 11.1 µM | GI50 (MDA-MB-231 breast): 5.25 µM | TGI (MDA-MB-231 breast): 10.4 µM | GI50 (MOLT-4 leukemia): 4.93 µM | TGI (MOLT-4 leukemia): 16.9 µM | GI50 (NCI-H226 lung): 5.47 µM | TGI (NCI-H226 lung): 11.2 µM
